The record followed here is ChEMBL document CHEMBL1148763 (J Med Chem, 2007).

In general, IC50 refers to the concentration at which inhibition is half-maximal.

This assay addresses T1, Dihydrofolate reductase (Bacillus anthracis, UniProt Q81R22).
T1 sequence (Q81R22 whole entry): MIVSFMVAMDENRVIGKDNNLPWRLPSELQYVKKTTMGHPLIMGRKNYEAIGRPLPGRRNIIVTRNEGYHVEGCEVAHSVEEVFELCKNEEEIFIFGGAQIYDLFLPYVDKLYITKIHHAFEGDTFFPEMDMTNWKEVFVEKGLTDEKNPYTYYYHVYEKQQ
Nature of the assay: Inhibition of Bacillus anthracis DHFR.

As to `CN(c1ccc(C(=O)NC(CCC(=O)O)C(=O)O)cc1)c1cnc2nc(N)nc(N)c2n1` (stereo unspecified), the IC50 was 15 nM.
